Experimental findings from publication PMC5670239, “Structural basis for mutually exclusive co-transcriptional nuclear cap-binding complexes with either NELF-E or ARS2” (Nature Communications, 2017) are described below.

One assay deals with T1, CBCmut (Homo sapiens, UniProt P52298, Y50A).
T1 sequence (P52298 1-156 Y50A): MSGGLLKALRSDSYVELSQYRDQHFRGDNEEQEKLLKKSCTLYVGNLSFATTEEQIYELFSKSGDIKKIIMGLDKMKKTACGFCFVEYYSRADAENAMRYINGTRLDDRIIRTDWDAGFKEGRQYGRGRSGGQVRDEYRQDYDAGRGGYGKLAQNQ
T1 sequence (Q09161 20-790 Y461A/R610E/H651A partner): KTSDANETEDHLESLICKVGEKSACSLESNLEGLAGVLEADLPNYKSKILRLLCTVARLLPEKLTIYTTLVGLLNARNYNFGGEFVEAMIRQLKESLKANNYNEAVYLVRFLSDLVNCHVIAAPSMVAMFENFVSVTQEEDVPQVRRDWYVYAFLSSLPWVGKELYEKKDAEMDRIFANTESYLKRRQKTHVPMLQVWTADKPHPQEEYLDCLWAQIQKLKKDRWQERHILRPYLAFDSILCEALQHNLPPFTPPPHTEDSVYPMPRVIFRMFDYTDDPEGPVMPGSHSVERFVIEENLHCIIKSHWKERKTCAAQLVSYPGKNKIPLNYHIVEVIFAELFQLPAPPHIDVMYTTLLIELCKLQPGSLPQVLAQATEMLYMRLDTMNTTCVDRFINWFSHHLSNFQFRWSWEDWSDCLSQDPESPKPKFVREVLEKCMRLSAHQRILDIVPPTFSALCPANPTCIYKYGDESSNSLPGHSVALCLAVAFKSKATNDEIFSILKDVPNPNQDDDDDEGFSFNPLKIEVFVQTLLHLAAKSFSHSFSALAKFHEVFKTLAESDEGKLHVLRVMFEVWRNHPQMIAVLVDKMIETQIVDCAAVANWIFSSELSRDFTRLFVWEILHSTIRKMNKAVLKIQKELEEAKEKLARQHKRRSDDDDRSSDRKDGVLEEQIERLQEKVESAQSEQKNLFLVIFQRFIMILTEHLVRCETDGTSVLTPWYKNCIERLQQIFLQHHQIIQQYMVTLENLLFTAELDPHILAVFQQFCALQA
Nature of the assay: ITC, m^7GTP binding to CBCmut. The note with it: 25 °C, pH 7.8, m^7GTP titrated to CBCmut, mean ± SD of 2 experiments. In general terms: Isothermal titration calorimetry measures the heat released or taken up as one component is titrated into another.

For the next assay, the target named is CBC-NELF-E 244–380 (Homo sapiens, UniProt P52298). The assay is described as follows: ITC, m^7GTP titrated to CBC saturated with NELF-E 244–380. In kind it is binding. From the text:
Supplementary Figure 7. Influence of ARS2 and NELF-E on m7GTP binding to CBC.
Representative isothermal titration calorimetry data, presented as in the caption to Figure 1C,
allowing determination of the affinity of CBC to m7GTP in the absence (left) or in the
presence of bound ARS2827-871 (middle) or NELF-E244-380 (right). CBC or CBC saturated
with 2.2 molar excess of ARS2827-871 or NELF-E244-380 in the sample cell was titrated by
m7GTP. KD values represent the average from at least two independent experiments (see […]

The next assay addresses T2, CBC (6 mutations) (Homo sapiens, UniProt P52298, D107R/Y50A/Y89A).
T2 sequence (P52298 1-156 Y50A/Y89A/D107R): T1 sequence (P52298 1-156 Y50A) with Y89A, D107R
T2 sequence (Q09161 20-790 Y461A/R610E/H651A partner): T1 sequence (Q09161 20-790 Y461A/R610E/H651A partner)
The assay is described as follows: ITC, m^7GTP binding to CBC with triple mutants of both CBP20 and CBP80. The note with it: 25 °C, pH 7.8, CBP80 Y461A/R610E/H651A + CBP20 Y50A/Y89A/D107R, mean ± SD of 2 experiments.

Numbering of substitutions follows the chain as printed.

Chain of CBC-NELF-E 244–380 (P52298 whole entry): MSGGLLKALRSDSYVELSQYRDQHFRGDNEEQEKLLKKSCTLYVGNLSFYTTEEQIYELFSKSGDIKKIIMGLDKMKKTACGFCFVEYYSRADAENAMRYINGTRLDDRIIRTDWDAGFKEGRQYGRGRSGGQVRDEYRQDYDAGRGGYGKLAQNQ
Chain of CBC-NELF-E 244–380 (Q09161 20-790 partner): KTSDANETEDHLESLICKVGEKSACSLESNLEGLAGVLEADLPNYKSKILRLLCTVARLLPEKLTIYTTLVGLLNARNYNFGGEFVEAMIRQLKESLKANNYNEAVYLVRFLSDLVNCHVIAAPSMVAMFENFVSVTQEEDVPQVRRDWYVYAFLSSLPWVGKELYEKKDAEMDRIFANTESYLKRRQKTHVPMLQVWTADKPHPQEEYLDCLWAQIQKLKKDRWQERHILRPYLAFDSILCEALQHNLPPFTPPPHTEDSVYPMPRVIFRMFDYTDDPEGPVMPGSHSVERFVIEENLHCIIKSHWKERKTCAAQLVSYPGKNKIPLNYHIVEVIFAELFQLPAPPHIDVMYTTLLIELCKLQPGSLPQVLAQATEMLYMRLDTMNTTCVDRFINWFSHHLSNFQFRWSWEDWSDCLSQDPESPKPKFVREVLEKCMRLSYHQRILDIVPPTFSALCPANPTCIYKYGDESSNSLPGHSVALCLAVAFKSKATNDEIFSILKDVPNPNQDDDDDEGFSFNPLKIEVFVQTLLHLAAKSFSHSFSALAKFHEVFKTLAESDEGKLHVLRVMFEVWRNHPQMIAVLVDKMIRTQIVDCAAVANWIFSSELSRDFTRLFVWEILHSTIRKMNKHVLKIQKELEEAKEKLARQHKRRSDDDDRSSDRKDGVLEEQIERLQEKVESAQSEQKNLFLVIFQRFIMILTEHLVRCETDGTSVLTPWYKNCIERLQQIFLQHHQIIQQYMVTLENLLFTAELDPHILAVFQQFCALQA
Chain of CBC-NELF-E 244–380 (P18615 244-380 partner): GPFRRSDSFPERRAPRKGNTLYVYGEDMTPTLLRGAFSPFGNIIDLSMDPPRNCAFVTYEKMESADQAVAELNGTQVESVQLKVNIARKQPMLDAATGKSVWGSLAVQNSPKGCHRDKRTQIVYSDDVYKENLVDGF
Procedure for CBC (6 mutations): (§1) For CBC, a triple mutant in CBP80 (Y461A/R610E/H651A) was combined with various mutations in CBP20 (Y50A, Y50A/Y89A, or Y50A/Y89A/D107R).
(§2) ITC experiments were performed on a MicroCal ITC200 system (Malvern). Proteins were dialyzed overnight in buffer 20 mM HEPES, 120 mM NaCl, 2 mM tris(2-carboxyethyl)phosphine, pH 7.8. Injections of 1.5 µl protein A were added at an interval of 120–180 s into 205 µl of protein B in the cell, with a stirring speed of 800 rpm at 25 °C. The experimental data were analysed with MicroCal ITC Origin and were fitted to a single-site binding equation.
Procedure for CBCmut: as §1, §2

In general, Kd refers to the free concentration of one partner at which half of the binding sites on the other are occupied at equilibrium, for simple one-to-one binding. Regarding `C[n+]1cn([C@@H]2O[C@H](COP(=O)(O)OP(=O)([O-])OP(=O)(O)O)[C@@H](O)[C@H]2O)c2nc(N)[nH]c(=O)c21` [m^7GTP], on CBCmut, the “K D” value is given as “as well as wild-type CBC”. For the same compound, the dissociation constant (Kd) is 95 ± 24 nM on CBCmut (SD); 44 ± 2 nM on CBC-NELF-E 244–380 (25 °C, pH 7.8, CBC saturated with 2.2 molar excess of NELF-E 244–380, titrated by m^7GTP, mean ± SD of 3 experiments, SD); 70000 ± 4000 nM on CBC (6 mutations). Further, the “Increase of the affinity of CBC for cap (m^7GTP) by saturating NELF-E” value at CBC-NELF-E 244–380 (compared to m^7GTP binding to CBC alone) is reported as ~ 3 factor.
